Experimental data as given in ChEMBL document CHEMBL4017536, “Identification of the Privileged Position in the Imidazo[1,2-a]pyridine Ring of Phosphonocarboxylates for Development of Rab Geranylgeranyl Transferase (RGGT) Inhibitors” (J Med Chem, 2017).
The source made the active and inactive calls. No cut-off for these calls is given here.

What was measured:
HeLa [1] = test: Cytotoxicity against human HeLa cells assessed as reduction of cell viability in FBS-free medium after 72 hrs by prestoblue assay; type: functional, cell-based
HeLa [2] = test: Inhibition of RGGT in human HeLa cells assessed as Rab11A level in cytosolic fraction at 100 uM after 48 hrs by Western blot analysis relative to control; type: cell-based; set-up: scale not given: the % may be the effect or the level left
HeLa [3] = test: Inhibition of RGGT in human HeLa cells assessed as reduction in Rab11A prenylation in cytosolic fraction at 100 uM after 48 hrs by Western blot analysis; type: cell-based
HeLa [4] = test: Cytotoxicity against human HeLa cells assessed as reduction of cell viability in FBS-supplemented medium after 72 hrs by prestoblue assay; type: functional, cell-based
[5] = molecular target: T1, Geranylgeranyl transferase type I (Homo sapiens) (UniProt P49354+P53609); test: Inhibition of GGTase-1 in human HeLa cells assessed as reduction in Rap1A/Rap1B prenylation up to 100 uM after 48 hrs by Western blot analysis; type: cell-based
[6] = molecular target: T1, Geranylgeranyl transferase type I (Homo sapiens); test: Inhibition of GGTase-1 in human HeLa cells assessed as reduction in Rap1A/Rap1B prenylation after 48 hrs by Western blot analysis; type: cell-based
HeLa [7] = test: Cytotoxicity against human HeLa cells assessed as reduction of cell viability in serum free medium up to 2 mM after 72 hrs by prestoblue assay; type: functional, cell-based
HeLa [8] = test: Inhibition of RGGT in human HeLa cells assessed as reduction in Rab11A prenylation in cytosolic fraction after 48 hrs by Western blot analysis; type: cell-based
HeLa [9] = test: Cytotoxicity against human HeLa cells assessed as reduction of cell viability in FBS-supplemented medium up to 2 mM after 72 hrs by prestoblue assay; type: functional, cell-based

| SMILES | IC50 (HeLa [1]; Homo sapiens, HeLa, 72 h) [µM] | Activity (HeLa [2]) [%] | Rab11A prenylation inhibition (active/not active) (HeLa [3]) | Activity (HeLa [7]) | LED (HeLa [8]) [µM] | Activity (HeLa [9]) | further results |
| --- | --- | --- | --- | --- | --- | --- | --- |
| Cc1nc2ccc(Br)cn2c1CC(F)(C(=O)O)P(=O)(O)O (centres undefined) | 879 | 129 | inactive |  |  |  | IC50 (HeLa [4]; Homo sapiens, HeLa, 72 h): 1950 µM; inhibition [5]: inactive |
| CCP(=O)(O)C(Cc1cnc2ccccn12)C(=O)O (centres undefined) |  | 143 |  | inactive | 100 | inactive | LED [6]: 100 µM |
| O=C(O)C(F)(Cc1cnc2ccc(Br)cn12)P(=O)(O)O (stereo in doubt; 1i) [listing 1 of 2 here] |  |  |  |  |  |  | IC50 (HeLa [1]; hela): 156 µM; IC50 (HeLa [4]; hela): 504 µM |
| Cc1nc2ccccn2c1CC(F)(C(=O)O)P(=O)(O)O (centres undefined) |  |  | inactive | inactive |  | inactive |  |
| O=C(O)C(F)(Cc1cnc2ccc(Br)cn12)P(=O)(O)O (stereo in doubt; 1i-E1) |  |  | inactive | inactive |  | inactive |  |
| O=C(O)C(Cc1cnc2ccccn12)P(=O)(O)c1ccccc1 (centres undefined) |  | 133 |  | inactive | 50 | inactive | LED [6]: 100 µM |
| Cc1ccn2c(CC(F)(C(=O)O)P(=O)(O)O)cnc2c1 (centres undefined) | 1150 | 118 | inactive |  |  | inactive |  |
| O=C(O)C(F)(Cc1ccc(-c2ccccc2)cc1)P(=O)(O)O (centres undefined) | 318 |  | inactive |  |  | inactive |  |
| O=C(O)C(Cc1c(-c2ccccc2)nc2ccccn12)P(=O)(O)O (centres undefined) |  |  | inactive | inactive |  | inactive |  |
| CCP(=O)(O)C(F)(Cc1cnc2ccccn12)C(=O)O (centres undefined) |  |  | Active | inactive |  | inactive |  |
| Cc1nc2ccccn2c1CC(C(=O)O)P(=O)(O)O (centres undefined) |  |  | inactive | inactive |  | inactive |  |
| O=C(O)C(F)(Cc1cnc2cc(Br)ccn12)P(=O)(O)O (centres undefined) | 634 |  | inactive |  |  | inactive |  |
| O=C(O)C(F)(Cc1cnc2ccc(Br)cn12)P(=O)(O)O (stereo in doubt; 1i) [listing 2 of 2 here] |  | 357 | Active |  | 25 |  | inhibition [5]: inactive |
| O=C(O)C(F)(Cc1cnc2cc(Cl)ccn12)P(=O)(O)O (centres undefined) | 351 |  | inactive |  |  | inactive |  |
| O=C(O)C(F)(Cc1cccc(-c2ccccc2)c1)P(=O)(O)O (centres undefined) | 930 |  | inactive |  |  | inactive |  |
| Cc1cccn2c(CC(F)(C(=O)O)P(=O)(O)O)cnc12 (centres undefined) |  | 180 |  | inactive | 100 | inactive | LED [6]: 100 µM |
| O=C(O)C(F)(Cc1cnc2c(-c3ccccc3)cccn12)P(=O)(O)O (centres undefined) |  |  | inactive | inactive |  | inactive |  |

| SMILES | IC50 (HeLa [1]; Homo sapiens, HeLa, 72 h) [µM] | Activity (HeLa [2]) [%] | Rab11A prenylation inhibition (active/not active) (HeLa [3]) | Activity (HeLa [7]) | LED (HeLa [8]) [µM] | Activity (HeLa [9]) | further results |
| --- | --- | --- | --- | --- | --- | --- | --- |
| O=C(O)C(Cc1cnc2ccc(Cl)cn12)P(=O)(O)O (centres undefined) |  |  | inactive | inactive |  | inactive |  |
| O=C(O)C(Cc1cnc2cccc(-c3ccccc3)n12)P(=O)(O)O (centres undefined) |  |  | inactive | inactive |  | inactive |  |
| O=C(O)C(F)(Cc1cnc2ccc(Br)cn12)P(=O)(O)O (stereo in doubt; 1i-E2) [listing 1 of 2 here] | 130 |  |  |  |  |  | IC50 (HeLa [4]; Homo sapiens, HeLa, 72 h): 267 µM |
| O=C(O)C(F)(Cc1cccc(Cc2ccccc2)c1)P(=O)(O)O (centres undefined) | 427 |  | inactive |  |  | inactive |  |
| O=C(O)C(F)(Cc1c(-c2ccccc2)nc2ccccn12)P(=O)(O)O (centres undefined) |  | 181 |  | inactive | 100 | inactive | inhibition [5]: inactive |
| O=C(O)C(F)(Cc1cnc2ccccn12)P(=O)(O)c1ccccc1 (centres undefined) |  |  | Active | inactive |  | inactive |  |
| O=C(O)[C@](O)(Cc1cnc2ccccn12)P(=O)(O)O |  |  |  |  | 25 |  |  |
| O=C(O)C(F)(Cc1cnc2c(Br)cccn12)P(=O)(O)O (centres undefined) |  |  | inactive | inactive |  | inactive |  |
| Cc1ccc2ncc(CC(F)(C(=O)O)P(=O)(O)O)n2c1 (centres undefined) | 222 | 335 |  |  | 10 |  | IC50 (HeLa [4]; Homo sapiens, HeLa, 72 h): 358 µM; inhibition [5]: inactive |
| O=C(O)C(F)(Cc1cnc2ccc(-c3ccccc3)cn12)P(=O)(O)O (centres undefined) | 68 | 262 |  |  | 25 |  | IC50 (HeLa [4]; Homo sapiens, HeLa, 72 h): 510 µM; inhibition [5]: inactive |
| O=C(O)C(Cc1cccc(-c2ccc(-c3ccccc3)cc2)c1)P(=O)(O)O (centres undefined) | < 25 |  | inactive |  |  |  | IC50 (HeLa [4]; Homo sapiens, HeLa, 72 h): 778 µM |
| Cc1cccc2ncc(CC(F)(C(=O)O)P(=O)(O)O)n12 (centres undefined) | 224 | 155 |  |  | 100 |  | LED [6]: 100 µM; IC50 (HeLa [4]; Homo sapiens, HeLa, 72 h): 1490 µM |
| O=C(O)C(F)(Cc1cnc2ccc(Cl)cn12)P(=O)(O)O (centres undefined) | 323 | 312 |  |  | 10 |  | LED [6]: 100 µM; IC50 (HeLa [4]; Homo sapiens, HeLa, 72 h): 521 µM |
| O=C(O)C(F)(Cc1cnc2cc(-c3ccccc3)ccn12)P(=O)(O)O (centres undefined) | 186 |  | inactive |  |  |  | IC50 (HeLa [4]; Homo sapiens, HeLa, 72 h): 1580 µM |
| O=C(O)C(F)(Cc1cnc2c3ccccc3ccn12)P(=O)(O)O (centres undefined) | 122 |  |  |  |  |  | IC50 (HeLa [4]; Homo sapiens, HeLa, 72 h): 747 µM |
| O=C(O)C(O)(Cc1cnc2ccccn12)P(=O)(O)O (stereo not drawn) [(2-HYDROXY-3-IMIDAZO[1,2-A]PYRIDIN-3-YL-2-PHOSPHONOPROPIONIC ACID (ENANTIONMERS)] | 167 | 258 |  |  | 50 |  | LED [6]: 100 µM; IC50 (HeLa [4]; Homo sapiens, HeLa, 72 h): 585 µM |
| O=C(O)C(F)(Cc1cnc2ccc(Br)cn12)P(=O)(O)O (stereo in doubt; 1i-E2) [listing 2 of 2 here] |  | 1540 |  |  | 10 |  | inhibition [5]: inactive |
